{"source": "patent US20110117120A1", "about": "“Plasmodium falciparum HLA class I restricted T-cell epitopes” (priority 2009, published 2011)", "assay_type_in_all_cases": "cell-based, human", "key": {"PBMC": {"test_system": "PBMC", "experiment": "ELISpot IFN-γ assay with PBMC of Ad5-PfCA immunized volunteers (Example 1)", "conditions": "for IFN-γ ELISpot activity of individual 15-mer peptide: threshold 40 SFC/million; for ELISpot activity of 1 month PBMC: v005, PBMC 1 month", "description": "In order to assess the pools for their ability to induce T-cell responses, specifically CD 8^+ responses, PBMC, 1 month post immunization were used, from the five volunteers in Table 1, in ELISpot assays. In these studies, IFN-γ activity was measured in response to exposure to the peptide pools. The assays were conducted essentially as described by Wang, et al., Proc. Natl. Acad. Sci. (U.S.A.), 98: 10817-22.\nThe stimulation of circulating antigen-specific T cell lymphocytes was evaluated by measurement of γ-IFN induction by ELISPOT. The ELISpot assay was conducted using thawed cryopreserved PBMC at 200 K cells per well. Pre-challenge cells were taken at day 21 and day 22 post AdPfCA vaccination. Cells were suspended in […] complete medium and were stimulated with AMA1 peptides suspended in […] of complete medium. Peptide concentrations used in assays was 10 μg/ml of each peptide tested. Cultures were incubated for 36 h at 37° C., 5% CO2. Depending on availability of cells, each PBMC sample was assayed in duplicate, triplicate, or quadruplicate and the number of IFN-γ-secreting cells recognized as spot-forming cells (SFC) was enumerated using an automated ELISpot reader. In duplicate assays, all values were used in analysis. For triplicate or quadruplicate assays, outliers were rejected if any single value contributed more than 50% of the standard deviation of the triplicate (or quadruplicate) and if its value was three-fold greater or less than the average of the remaining two (or three) values. The mean spot forming cells (SFCs) obtained in negative control wells were subtracted from the value of each test well from the same sample. Negative counts generated by this background subtraction were converted to zero. The mean spot number of the test sample was then calculated and expressed as SFC/million PBMCs. Values obtained with pre-vaccinated samples were subtracted from the post-vaccination values."}, "[1]": {"test_system": "CD4+ or CD8+ T cell depleted PBMC", "experiment": "ELISpot IFN-γ assay after CD4+ or CD8+ T cell depletion of PBMC (Example 1)", "design": "% change of ELISpot activity, CD8 dep vs control: concentration or dose not given beside the values; ELISpot IFN-γ activity, Control dep / ELISpot IFN-γ activity, CD4 dep / ELISpot IFN-γ activity, CD8 dep: unit not given here", "conditions": "for ELISpot IFN-γ activity, CD4 dep: CD4+ T cells depleted; for ELISpot IFN-γ activity, CD8 dep: CD8+ T cells depleted; for ELISpot IFN-γ activity, Control dep: mock depletion", "description": "(§1) PBMC population depletion was conducted using anti-human CD4+ and anti-CD8^+ coated Dynabeads™ M-450 (Dynal, Great Neck, N.Y.) following the manufacturer's instructions. Mock depletion was done with Dynabeads coated with Sheep anti-mouse IgG. Flow cytometry confirmed that T-cell subset depletions were >99% in all experiments. The data is presented as the % effect (decrease) in activity after T cell subset depletion.\nFinally, we wanted to confirm that indeed the responses to AMA14e were mediated by CD8^+ T cells. We compared activity to AMA14e in ELISpot depletion assays and ICS CD4^+ or CD8^+ T cell IFN-γ assays with Ap1-12 and recombinant AMA1 protein with v001 and v005 (FIG. 3). CD8^+ T cell depletion reduced ELISpot activity to AMA14e by about 85% in v001 and 95% in v005."}, "[2]": {"test_system": "CD4+ and CD8+ T cells of PBMC", "experiment": "Intracellular cytokine staining (ICS) of CD4+ and CD8+ T cells", "conditions": "for CD8^+ T cell IFN-γ response in ICS: HLA-matched volunteers, FIG. 1 upper panel; for multifunctional CD8^+ T cell responses in ICS: v008 and v012, any two of IFN-γ, IL-2, TNF-α, FIG. 1 lower panel", "description": "ICS was performed on PBMCs with costimulatory antibodies anti-CD28 and […] (obtained from BD Bioscience™, San Jose, Calif.). The peptides were used at the same concentrations as in ELISpot assays. Stimulants were added t cells and incubated at 37° C. with 5% CO2 for 2 hr. Golgi Plug™ (Brefeldin A) (BD Bioscience™, San Jose, Calif.) was added at a final concentration of 0.6 μL/mL and incubated at 37° C. with 5% CO2 overnight. Cells were stained with anti-CD3 (Alexa Fluor 700™), anti-CD4 (PerCP™), and anti-CD8 Pacific Blue™ (obtained from BD Bioscience™, San Jose, Calif.). and 1 μg/mL of live/dead fixable blue dye, incubated and washed. Cells were permeabilized with Cytofix/Cytoperm™ solution (obtained from BD Bioscience™, San Jose, Calif.), incubated and washed. Cells were stained intracellularly with anti-CD3 ([…]), anti-CD4 (PerCP™), and anti-CD8 Pacific Blue™, anti-IFN-γ FITC, anti-TNF PE, and anti-IL2 APC, incubated and washed. Cells were resuspended and the entire available sample was acquired by flowcytometry. The gating strategy included progressively measuring total cells; viable cells only; lymphocytes; T cells; CD4^+ CD8^+ populations; and a specific cell type expressing a specific cytokine. Histograms were used to determine the total production of IFN-γ, IL2, and TNF for the CD4^+ and CD8^+ populations. Boolean gates were used to determine cells producing combinations of cytokines.\nIn these studies, T cells containing IFN-γ, IL2, or TNFα, were gated into different subsets: IFN-γ+, IL2+, TNFα−; IFN-γ+, IL2-, TNFα+; IFN-γ+, IL2+, TNFα+; or IFN-γ+, IL2−, TNFα− T cells, and stimulated with the predicted epitopes and their parent peptide pool. The frequency of CD8^+ T cells producing total IFN-γ was far greater than CD4^+ T cell responses (FIG. 1, upper panel), which were extremely low."}, "[3]": {"test_system": "CD8+ or CD4+ T-cell depleted PBMC", "experiment": "ELISpot IFN-γ assay after CD8+ or CD4+ T-cell depletion (Example 2, Table 6)", "conditions": "for CD4^+ depletion, test: CD4+ depleted; for CD8^+ Depletion, test: CD8+ depleted", "description": "as §1, with “depletion. […]” for “depletion.”\nThe results of this study, summarized in Table 6, identified other CD8^+ epitopes, associated specific HLA class I genes."}, "[4]": {"conditions": "Vol. 1550-10, 12 wk post challenge"}, "[5]": {"conditions": "Vol. 1550-11, 4 wk post challenge"}}, "data": [{"sequence": "CNKLVFELSASDQPK [Ap7-7]", "values": [{"measurement": "IFN-γ ELISpot activity of individual 15-mer peptide", "setting": "PBMC; Volunteer 001", "value": 77, "unit": "SFC/10^6"}]}, {"sequence": "LLSAFEFTYMINFGR [Ap1-3]", "values": [{"measurement": "% change of ELISpot activity, CD4 dep vs control", "setting": "[1]; V001", "value": "−32", "unit": "%"}, {"measurement": "% change of ELISpot activity, CD8 dep vs control", "setting": "[1]; V001", "value": "−56", "unit": "%"}, {"measurement": "ELISpot IFN-γ activity, CD4 dep", "setting": "[1]; V001", "value": 58}, {"measurement": "ELISpot IFN-γ activity, CD8 dep", "setting": "[1]; V001", "value": 37}, {"measurement": "ELISpot IFN-γ activity, Control dep", "setting": "[1]; V001", "value": 85}, {"measurement": "IFN-γ ELISpot activity of individual 15-mer peptide", "setting": "PBMC; Volunteer 001", "value": 48, "unit": "SFC/10^6"}]}, {"sequence": "EMRHFYKDNKYVKNL [Ap4-11]", "values": [{"measurement": "IFN-γ ELISpot activity of individual 15-mer peptide", "setting": "PBMC; Volunteer 005", "value": 65, "unit": "SFC/10^6"}, {"measurement": "ELISpot activity of 1 month PBMC", "setting": "PBMC", "value": 65, "unit": "sfc/m"}]}, {"sequence": "LMSPMTLDEMRHFYK [Ap4-9]", "values": [{"measurement": "% change of ELISpot activity, CD4 dep vs control", "setting": "[1]; V005", "value": "−32", "unit": "%"}, {"measurement": "% change of ELISpot activity, CD8 dep vs control", "setting": "[1]; V005", "value": "−100", "unit": "%"}, {"measurement": "ELISpot IFN-γ activity, CD4 dep", "setting": "[1]; V005", "value": 137}, {"measurement": "ELISpot IFN-γ activity, CD8 dep", "setting": "[1]; V005", "value": 1}, {"measurement": "ELISpot IFN-γ activity, Control dep", "setting": "[1]; V005", "value": 204}, {"measurement": "IFN-γ ELISpot activity of individual 15-mer peptide", "setting": "PBMC; Volunteer 002", "value": 189, "unit": "SFC/10^6"}, {"measurement": "IFN-γ ELISpot activity of individual 15-mer peptide", "setting": "PBMC; Volunteer 005", "value": 395, "unit": "SFC/10^6"}]}, {"sequence": "CEIFNVKPTCLINNS [Ap8-12]", "values": [{"measurement": "IFN-γ ELISpot activity of individual 15-mer peptide", "setting": "PBMC; Volunteer 005", "value": 127, "unit": "SFC/10^6"}]}, {"sequence": "TLDEMRHFY [Epitope 8]", "values": [{"measurement": "CD8^+ T cell IFN-γ response in ICS", "setting": "[2]", "value": "equal or more CD8^+ IFN-γ than the parent peptide pool"}]}, {"sequence": "FKADRYKSHGKGYNW [Ap8-6]", "values": [{"measurement": "IFN-γ ELISpot activity of individual 15-mer peptide", "setting": "PBMC; Volunteer 012", "value": 143, "unit": "SFC/10^6"}, {"measurement": "CD4^+ depletion % change", "setting": "[3]; [4]", "value": 26, "unit": "%"}, {"measurement": "CD8^+ Depletion % change", "setting": "[3]; [4]", "value": 100, "unit": "%"}, {"measurement": "CD4^+ depletion, test", "setting": "[3]; [4]", "value": 81, "unit": "SFC/10^6"}, {"measurement": "CD8^+ Depletion, test", "setting": "[3]; [4]", "value": 0, "unit": "SFC/10^6"}, {"measurement": "CD4^+ depletion, control", "setting": "[3]; [4]", "value": 109, "unit": "SFC/10^6"}, {"measurement": "CD8^+ Depletion, control", "setting": "[3]; [4]", "value": 109, "unit": "SFC/10^6"}]}, {"sequence": "ETQKCEIFNV (listed as Plasmodium falciparum) [Epitope 10]", "values": [{"measurement": "CD8^+ T cell IFN-γ response in ICS", "setting": "[2]", "value": "very weak CD8^+ IFN-γ responses"}, {"measurement": "multifunctional CD8^+ T cell responses in ICS", "setting": "[2]", "value": "did not appear to induce multifunctional responses"}]}, {"sequence": "NQYLKDGGFAFPPTE [Ap4-5]", "values": [{"measurement": "IFN-γ ELISpot activity of individual 15-mer peptide", "setting": "PBMC; Volunteer 005", "value": 50, "unit": "SFC/10^6"}, {"measurement": "ELISpot activity of 1 month PBMC", "setting": "PBMC", "value": 50, "unit": "sfc/m"}]}, {"sequence": "RYKSHGKGYNWGNYN [Ap8-7]", "values": [{"measurement": "CD4^+ depletion % change", "setting": "[3]; [4]", "value": 26, "unit": "%"}, {"measurement": "CD8^+ Depletion % change", "setting": "[3]; [4]", "value": 99, "unit": "%"}, {"measurement": "CD4^+ depletion, test", "setting": "[3]; [4]", "value": 54, "unit": "SFC/10^6"}, {"measurement": "CD8^+ Depletion, test", "setting": "[3]; [4]", "value": 1, "unit": "SFC/10^6"}, {"measurement": "CD4^+ depletion, control", "setting": "[3]; [4]", "value": 72, "unit": "SFC/10^6"}, {"measurement": "CD8^+ Depletion, control", "setting": "[3]; [4]", "value": 72, "unit": "SFC/10^6"}]}, {"sequence": "RYKSHGKGY (listed as Plasmodium falciparum) [Epitope 14]", "values": [{"measurement": "CD8^+ T cell IFN-γ response in ICS", "setting": "[2]", "value": "very weak CD8^+ IFN-γ responses"}, {"measurement": "multifunctional CD8^+ T cell responses in ICS", "setting": "[2]", "value": "did not appear to induce multifunctional responses"}]}, {"sequence": "NSTCRFFVCK (listed as Plasmodium falciparum)", "values": [{"measurement": "CD4^+ depletion % change", "setting": "[3]; [5]", "value": 26, "unit": "%"}, {"measurement": "CD8^+ Depletion % change", "setting": "[3]; [5]", "value": 100, "unit": "%"}, {"measurement": "CD4^+ depletion, test", "setting": "[3]; [5]", "value": 153, "unit": "SFC/10^6"}, {"measurement": "CD8^+ Depletion, test", "setting": "[3]; [5]", "value": 0, "unit": "SFC/10^6"}, {"measurement": "CD4^+ depletion, control", "setting": "[3]; [5]", "value": 207, "unit": "SFC/10^6"}, {"measurement": "CD8^+ Depletion, control", "setting": "[3]; [5]", "value": 207, "unit": "SFC/10^6"}, {"measurement": "T-cell response in ELISpot", "setting": "[3]; primarily attributable to CD8^+ T-cell response", "value": "stimulated a significant T-cell response"}]}]}
